Drawing on ChEMBL document CHEMBL4251747 (Bioorg Med Chem, 2018), this text covers Ki and solubility for five compounds.

Data set [1] has as its target Aurora kinase B/Inner centromere protein (Homo sapiens, UniProt Q96GD4). The data set is described as follows: Inhibition of human full length N-terminal GST-tagged Aurora B (1 to 344 end residues)/His-tagged INCENP (803 to 918 end residues) expressed in baculovirus expression system using fluorescence-labeled FL-Peptide 21 as substrate after 60 mins in presence of ATP by fluorescence assay based Cheng-Prusoff equation analysis.

The target of data set [2] is T1, Dual specificity protein kinase TTK (Homo sapiens, UniProt P33981).
T1 sequence (P33981 whole entry): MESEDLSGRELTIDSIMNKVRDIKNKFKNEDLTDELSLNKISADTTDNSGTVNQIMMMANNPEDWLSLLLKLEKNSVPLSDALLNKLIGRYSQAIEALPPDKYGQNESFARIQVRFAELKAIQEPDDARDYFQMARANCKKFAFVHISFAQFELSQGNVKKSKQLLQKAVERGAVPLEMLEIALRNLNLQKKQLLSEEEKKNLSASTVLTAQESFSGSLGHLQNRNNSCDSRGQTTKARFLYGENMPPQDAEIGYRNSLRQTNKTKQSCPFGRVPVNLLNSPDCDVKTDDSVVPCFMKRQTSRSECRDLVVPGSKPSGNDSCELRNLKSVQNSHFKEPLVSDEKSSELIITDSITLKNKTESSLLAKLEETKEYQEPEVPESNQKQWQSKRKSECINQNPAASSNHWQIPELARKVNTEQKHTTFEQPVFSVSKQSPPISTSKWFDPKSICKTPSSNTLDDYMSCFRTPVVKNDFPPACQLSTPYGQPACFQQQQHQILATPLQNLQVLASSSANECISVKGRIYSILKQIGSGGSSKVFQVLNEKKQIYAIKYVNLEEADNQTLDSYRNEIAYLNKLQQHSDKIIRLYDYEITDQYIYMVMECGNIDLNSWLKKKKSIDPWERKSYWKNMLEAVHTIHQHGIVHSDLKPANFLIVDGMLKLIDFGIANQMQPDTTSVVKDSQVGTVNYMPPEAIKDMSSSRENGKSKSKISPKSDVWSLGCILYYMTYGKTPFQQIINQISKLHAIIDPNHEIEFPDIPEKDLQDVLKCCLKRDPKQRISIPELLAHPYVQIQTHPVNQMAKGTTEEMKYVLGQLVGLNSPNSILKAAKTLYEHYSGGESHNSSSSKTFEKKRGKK
The data set is described as follows: Inhibition of full length human Mps1 using fluorescence-labeled H236 peptide as substrate after 60 to 90 mins in presence of ATP by fluorescence assay based Cheng-Prusoff equation analysis.

A further data set has as its target T2, Aurora kinase A (Homo sapiens, UniProt O14965).
T2 sequence (O14965 whole entry): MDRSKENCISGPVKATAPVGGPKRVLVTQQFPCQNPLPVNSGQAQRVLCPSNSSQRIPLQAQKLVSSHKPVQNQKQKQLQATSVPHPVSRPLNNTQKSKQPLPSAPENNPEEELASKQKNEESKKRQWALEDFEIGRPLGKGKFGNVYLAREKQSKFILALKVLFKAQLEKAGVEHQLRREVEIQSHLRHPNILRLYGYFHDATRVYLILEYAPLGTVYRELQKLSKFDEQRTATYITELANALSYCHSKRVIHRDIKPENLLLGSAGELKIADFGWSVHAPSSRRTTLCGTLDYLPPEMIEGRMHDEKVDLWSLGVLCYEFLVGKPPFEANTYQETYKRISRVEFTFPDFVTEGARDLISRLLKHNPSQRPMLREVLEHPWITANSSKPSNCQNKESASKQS
The data set is described as follows: Inhibition of full length N-terminal His-tagged Aurora A (unknown origin) using fluorescence-labeled FL-Peptide 21 as substrate after 60 mins in presence of ATP by fluorescence assay based Cheng-Prusoff equation analysis.

Data set [3] is described as follows: Solubility of the compound. Format: physicochemical.

Sequence of Aurora kinase B/Inner centromere protein (Q96GD4 whole entry): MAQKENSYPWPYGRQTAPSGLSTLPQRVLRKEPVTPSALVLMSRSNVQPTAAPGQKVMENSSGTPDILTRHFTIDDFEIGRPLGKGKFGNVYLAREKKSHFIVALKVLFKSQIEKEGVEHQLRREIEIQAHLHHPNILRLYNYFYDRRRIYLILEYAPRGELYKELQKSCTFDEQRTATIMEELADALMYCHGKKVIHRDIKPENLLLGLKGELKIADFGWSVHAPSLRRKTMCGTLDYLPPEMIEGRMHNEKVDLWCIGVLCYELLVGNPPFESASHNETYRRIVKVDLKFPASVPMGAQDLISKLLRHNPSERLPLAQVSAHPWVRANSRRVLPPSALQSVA
Sequence of Aurora kinase B/Inner centromere protein (Q9NQS7 whole entry, further chain): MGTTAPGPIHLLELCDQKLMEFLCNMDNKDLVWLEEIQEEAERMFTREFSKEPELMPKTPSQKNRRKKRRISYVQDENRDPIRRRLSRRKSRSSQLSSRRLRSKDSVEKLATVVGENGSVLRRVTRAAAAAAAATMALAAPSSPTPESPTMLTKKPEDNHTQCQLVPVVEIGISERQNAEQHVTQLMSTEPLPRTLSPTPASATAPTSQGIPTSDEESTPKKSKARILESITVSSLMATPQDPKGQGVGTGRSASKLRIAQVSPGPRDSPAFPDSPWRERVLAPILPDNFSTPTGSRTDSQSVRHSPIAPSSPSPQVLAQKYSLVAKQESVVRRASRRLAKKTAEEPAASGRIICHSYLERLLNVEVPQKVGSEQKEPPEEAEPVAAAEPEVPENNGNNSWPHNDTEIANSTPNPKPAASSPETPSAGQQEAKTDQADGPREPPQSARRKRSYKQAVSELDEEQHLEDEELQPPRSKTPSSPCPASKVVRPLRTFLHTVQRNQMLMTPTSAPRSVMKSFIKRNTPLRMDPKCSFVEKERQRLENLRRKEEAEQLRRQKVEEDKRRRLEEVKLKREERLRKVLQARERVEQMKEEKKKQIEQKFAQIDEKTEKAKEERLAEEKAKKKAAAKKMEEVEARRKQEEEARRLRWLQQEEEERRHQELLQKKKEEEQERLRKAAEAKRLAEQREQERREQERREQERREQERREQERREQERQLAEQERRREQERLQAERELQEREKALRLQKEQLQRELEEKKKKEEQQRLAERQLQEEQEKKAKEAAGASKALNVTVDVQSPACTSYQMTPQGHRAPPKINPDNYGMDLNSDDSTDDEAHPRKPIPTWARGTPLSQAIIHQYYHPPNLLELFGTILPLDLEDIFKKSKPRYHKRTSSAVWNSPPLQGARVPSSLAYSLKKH

By Ki is commonly meant a measure of affinity in units of concentration, obtained from inhibition or displacement. `Cn1cc(-c2ccncc2)cc(N)c1=O`: the inhibition constant Ki in data set [1] came out at 103 µM; in data set [2] it was 236 µM; on Aurora kinase A it was 99.5 µM.

Turning to `CN(C)Cc1ccc(-c2c[nH]c(=O)c(N)c2)cc1`, the values for the Ki (in data set [1]; in data set [2]; at Aurora kinase A) were 12.9 µM, 367 µM and greater than 100 µM, respectively.

Consider `O=C(Nc1cc(-c2ccnc(NC3CC3)n2)c[nH]c1=O)c1ccccc1`, for which the solubility entry in data set [3] is “Insoluble”.

For the compound `O=C(Nc1cc(-c2ccncc2)c[nH]c1=O)c1ccccc1`, the solubility result in data set [3] is given as “Insoluble”.

On to `CN1CCN(c2ccc(C(=O)Nc3cc(-c4ccncc4)c[nH]c3=O)cc2)CC1`, for which the solubility entry in data set [3] is reported as “Insoluble”.
